According to ChEMBL document CHEMBL4020754, “Isolation of the antibiotic pseudopyronine B and SAR evaluation of C3/C6 alkyl analogs” (Bioorg Med Chem Lett, 2017):
Values after ≈ are worked out from the molar mass of the structure shown.

Assays:
Assay type in all cases: functional
[1] = system: Staphylococcus aureus; assay: Antibacterial activity against Staphylococcus aureus ATCC 29213 measured after 24 hrs; conditions: ATCC 29213, 24 h
[2] = system: Escherichia coli; assay: Antibacterial activity against Escherichia coli ATCC 15022 measured after 24 hrs; conditions: ATCC 15022, 24 h
[3] = system: Bacillus subtilis; assay: Antibacterial activity against Bacillus subtilis ATCC 11774 measured after 24 hrs; conditions: ATCC 11774, 24 h
[4] = system: Pseudomonas aeruginosa; assay: Antibacterial activity against Pseudomonas aeruginosa ATCC 9027 measured after 24 hrs; conditions: ATCC 9027, 24 h

Row | IC50 [1] [µg/mL] | IC50 [2] [µg/mL] | IC50 [3] [µg/mL] | IC50 [4] [µg/mL] | SMILES
1 | 1.5 (≈ 4.86 µM) | > 1000 | 3.5 (≈ 11.3 µM) | > 1000 | CCCCCCC(=O)c1c(O)cc(CCCCCC)oc1=O
2 | 24 (≈ 95.1 µM) | 223 (≈ 884 µM) | 227 (≈ 900 µM) | > 1000 | CCCCC(=O)c1c(O)cc(CCCC)oc1=O
3 | > 1000 | 300 (≈ 1950 µM) | > 1000 | > 1000 | CCc1c(O)cc(C)oc1=O
4 | 48 (≈ 143 µM) | > 1000 | 27 (≈ 80.2 µM) | > 1000 | CCCCCCCC(=O)c1c(O)cc(CCCCCCC)oc1=O
5 | 0.1 (≈ 0.34 µM) | > 1000 | 0.3 (≈ 1.02 µM) | > 1000 | CCCCCCCc1cc(O)c(CCCCCC)c(=O)o1 [PSEUDOPYRONINES B]
6 | 116 (≈ 591 µM) | 257 (≈ 1310 µM) | > 1000 | > 1000 | CCC(=O)c1c(O)cc(CC)oc1=O
7 | > 1000 | > 1000 | > 1000 | > 1000 | CCCCCCCCCc1c(O)cc(CCCCCCCC)oc1=O
8 | > 1000 | > 1000 | > 1000 | > 1000 | CCCCCCCCC(=O)c1c(O)cc(CCCCCCCC)oc1=O
9 | 244 (≈ 1340 µM) | 278 (≈ 1530 µM) | 203 (≈ 1110 µM) | > 1000 | CCCc1c(O)cc(CC)oc1=O
10 | 4.6 (≈ 19.3 µM) | > 1000 | 23 (≈ 96.5 µM) | > 1000 | CCCCCc1c(O)cc(CCCC)oc1=O
11 | 3.8 (≈ 13.6 µM) | > 1000 | 21 (≈ 74.9 µM) | > 1000 | CCCCCC(=O)c1c(O)cc(CCCCC)oc1=O
12 | 46 (≈ 205 µM) | 248 (≈ 1110 µM) | 1000 (≈ 4460 µM) | > 1000 | CCCC(=O)c1c(O)cc(CCC)oc1=O
13 | 0.04 (≈ 0.136 µM) | > 1000 | 0.7 (≈ 2.38 µM) | > 1000 | CCCCCCCc1c(O)cc(CCCCCC)oc1=O
14 | 33 (≈ 157 µM) | > 1000 | 46 (≈ 219 µM) | > 1000 | CCCCc1c(O)cc(CCC)oc1=O
15 | > 1000 | > 1000 | 24 (≈ 74.4 µM) | > 1000 | CCCCCCCCc1c(O)cc(CCCCCCC)oc1=O
16 | 2.4 (≈ 9.01 µM) | > 1000 | 3.3 (≈ 12.4 µM) | > 1000 | CCCCCCc1c(O)cc(CCCCC)oc1=O
